Laboratory results: patent US20220056014A1, “PHENYLPYRROLIDINE COMPOUND AND USE THEREOF” (WUHAN HUMANWELL INNOVATIVE DRUG RESEARCH AND DEVELOPMENT …, priority 2018, published 2022)
pIC50: −log10 of the molar value.

Experiments:
PDE4D = target: T1, PDE4D (Homo sapiens, UniProt Q08499); assay: PDE4D enzyme activity assay (PDE-Glo Phosphodiesterase Assay Kit); format: biochemical
T1 construct: purchased Enzo Life Sciences BML-SE523-0020
Outline: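 Recombinant human PDE4B (1 ng/μl working solution) or PDE4D (4 ng/μl working solution) preincubated 5 min at RT with compound, then reacted 20 min with cAMP (2 μM in added solution). PDE-Glo termination/detection and Kinase-Glo steps followed; luminescence read and IC50 fitted.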

[1] = tested on: Mouse CIA arthritis model; assay: Mouse CIA arthritis model test; format: in vivo, DBA/1 mice; conditions: 30 mg/kg oral, twice a day for 21 days; for inhibition rate based on clinical score AUC: AUC day 21 to day 42; for Clinical score (endpoint): day 42, highest score 16
Experimental: (1) Preparation of Type II Collagen/Complete Freund's Adjuvant
Preparation of acetic acid: 2N acetic acid was diluted to 100 mM, filtered with 0.22 μm filter membrane, and stored at 4° C.
Preparation of bovine type II collagen solution: bovine type II collagen (CII) was dissolved in 100 mM acetic acid solution and stored at 4° C. overnight. A final concentration of collagen was 8 mg/mL.
Preparation of emulsion: the CII solution stored overnight was mixed with an equal volume of complete Freund's adjuvant, and homogenized on ice by a high-speed homogenizer at 30,000 rpm for approximately 60 min, until the solution formed a stable emulsion.
After DBA/1 mice were anesthetized with isoflurane, 50 μl of prepared collagen emulsion (containing 200 micrograms of CII) was injected subcutaneously in the tail (2-3 cm from the base of the tail) for immunization. The day of the primary immunization was recorded as day 0, and the following days were recorded sequentially. On day 21, the same volume of collagen emulsion was injected into the tail in the same way. Mice in the normal group were not immunized.
On day 21, the mice that had been induced to have arthritis were randomly grouped according to their body weights, such that the average body weight of each group was consistent, and they were randomly divided into 6 treatment groups for administration, with 10 mice in each group.
G1 group included normal mice without being treated; G2 group was given a blank vehicle; G3 to G7 groups were administrated with the compound at a dose of 30 mg/kg, twice a day for 21 days. The volume of oral administration was 10 mL/kg.
After the enhanced immunization, the disease incidence of the mice was observed every day. When the mice began to develop symptoms (clinical symptoms of arthritis emerged), the symptoms were graded as 0 to 4 according to the different degrees of pathological changes (redness, joint deformation), where the highest score for each limb was 4, and the highest score for each animal was 16. The mice were graded at least three times a week.
The area under curve (AUC) of clinical scores of each group from day 21 to day 42 was calculated, and the inhibition rate % of the clinical score AUC of the administration group was calculated:
Inhibition rate %=1−(administration group AUC/blank vehicle group AUC)*100%
The experimental data are expressed as Mean±standard error (Mean±SEM), and the clinical scores were analyzed with One-way ANOVA, where p<0.05 was considered to be a significant difference.

[2] = tested on: LPS-induced secretion of TNFα in human PBMCs; assay: LPS-induced secretion of TNFα in human PBMCs; format: cell-based; conditions: Homo sapiens, PBMC, 24 h, LPS 10 ng/ml
Outline: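 PBMCs isolated by Lymphoprep density centrifugation were seeded at 5×10^4/well in RPMI1640 + 10% FBS and given compound, with 30 min pre-incubation, then stimulated with 10 ng/ml LPS (final). After 24 h, supernatant TNF-α was measured by ELISA kit.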

T1 sequence (Q08499 whole entry): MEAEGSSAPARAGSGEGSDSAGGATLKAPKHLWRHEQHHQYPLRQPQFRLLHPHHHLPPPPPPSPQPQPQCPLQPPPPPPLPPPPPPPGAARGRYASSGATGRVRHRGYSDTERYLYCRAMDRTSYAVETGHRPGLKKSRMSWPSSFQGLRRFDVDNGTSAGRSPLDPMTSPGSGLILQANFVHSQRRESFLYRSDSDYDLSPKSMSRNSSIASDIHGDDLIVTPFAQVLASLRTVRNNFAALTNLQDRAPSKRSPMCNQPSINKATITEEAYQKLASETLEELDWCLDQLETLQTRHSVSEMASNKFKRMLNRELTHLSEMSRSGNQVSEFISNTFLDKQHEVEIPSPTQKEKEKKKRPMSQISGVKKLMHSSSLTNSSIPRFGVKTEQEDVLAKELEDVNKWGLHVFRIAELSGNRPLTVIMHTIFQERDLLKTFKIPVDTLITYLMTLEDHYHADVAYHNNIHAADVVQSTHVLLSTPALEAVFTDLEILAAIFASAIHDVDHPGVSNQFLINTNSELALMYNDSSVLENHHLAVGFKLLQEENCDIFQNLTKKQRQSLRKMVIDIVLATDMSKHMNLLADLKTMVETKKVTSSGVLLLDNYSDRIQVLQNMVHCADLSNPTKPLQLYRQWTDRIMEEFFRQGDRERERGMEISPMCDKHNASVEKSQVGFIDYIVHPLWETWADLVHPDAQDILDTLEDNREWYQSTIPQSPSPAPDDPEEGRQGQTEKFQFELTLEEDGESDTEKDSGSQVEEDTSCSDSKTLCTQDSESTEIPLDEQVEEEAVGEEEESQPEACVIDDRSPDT

pIC50 (PDE4D) | SMILES | inhibition rate based on clinical score AUC [1] | Clinical score (endpoint) [1] | pIC50 [2]
8.95 | COc1ccc([C@@H]2CN(C(=O)[C@@H](O)CO)C[C@@]2(C)[C@@H](C)O)cc1OC1CN(c2ncc(C)cc2F)C1 [Compound 004, (S)-1-((3S,4S)-4-(3-((1-(3-fluoro-5-methylpyridin-2-yl)azetidin-3-yl)oxy)-4-methoxyphenyl)-3-((R)-1-hydroxyethyl)-3-methylpyrrolidin-1-yl)-2,3-dihydroxypropan-1-one] | 67.5% | 3.3 | 8.29
8.40 | COc1ccc([C@@H]2CN(C(=O)[C@@H](O)CO)C[C@@]2(C)[C@@H](C)O)cc1OC1CN(c2ccc(C)c(C)n2)C1 [Compound 007, (S)-1-((3S,4S)-4-(3-((1-(5,6-dimethylpyridin-2-yl)azetidin-3-yl)oxy)-4-methoxyphenyl)-3-((R)-1-hydroxyethyl)-3-methylpyrrolidin-1-yl)-2,3-dihydroxypropan-1-one] | 77.2% | 3.1 | 8.65
8.97 | COc1ccc([C@@H]2CN(C(=O)[C@@H](O)CO)C[C@@]2(C)[C@@H](C)O)cc1OC1CN(c2ccc(Cl)c(C)n2)C1 [Compound 011, (S)-1-((3S,4S)-4-(3-((1-(5-chloro-6-methylpyridin-2-yl)azetidin-3-yl)oxy)-4-methoxyphenyl)-3-((R)-1-hydroxyethyl)-3-methylpyrrolidin-1-yl)-2,3-dihydroxypropan-1-one] | 49.3% | 4.8 | 8.81
9.39 | COc1ccc([C@@H]2CN(C(=O)[C@@H](O)CO)C[C@@]2(C)[C@@H](C)O)cc1OC1CN(c2ccc(C)cn2)C1 [Positive control compound, reference compound] | 42.3% | 4.4 | 8.48
